# Patent US8420777B2, “Compounds that inhibit Hsp90 protein-protein interactions with IAP proteins” (University of Massachusetts, priority 2004, dated 2013)
# Tested on: HeLa cells
# Test: Stability of Hsp90 client proteins and caspase-3 proform, Western blot
# Type: cell-based, Human
# Conditions: increasing concentrations, 24 hours
# Procedure: To determine whether intracellular loading of the Survivin cell permeable peptide reproduced the effect of mAb 8E2 that disrupts the Survivin-Hsp90 interaction in destabilizing Survivin levels in vivo (FIG. 8), HeLa cells were loaded with the indicated increasing concentrations of cell permeable control (SEQ ID NO:25) or Survivin (SEQ ID NO:19) cell permeable peptide, harvested after 24 hours, and analyzed for stability of Hsp90 client proteins, Survivin and Akt. Polyclonal antibody to Akt was obtained from Cell Signaling Technology (Cat. No. 9272).
sequence,measurement,value
RQIKIWFQNRRMKWKKKHSSGCAFL (Synthetically generated peptide) [P31],levels of Survivin and Akt,low levels of Survivin and Akt
